Measured values: patent US8987257B2 (Novartis AG, priority 2011, dated 2015)

Experiments:
PI3Kα = PI3Kα (Homo sapiens (Human), UniProt P42336); test: Test 1: PI3 Kinase Assay (PI3K KinaseGlo assay); type: biochemical; settings: 1 μM ATP
Procedure: L-a-phosphatidylinositol (PI), provided as 10 mg/ml solution in methanol, was transferred into a glass tube and dried under nitrogen beam. It was then resuspended in 3% OctylGlucoside (OG) by vortexing and stored at 4° C. The KinaseGlo Luminescent Kinase Assay (Promega, Madison/WI, USA) is a homogeneous HTS method of measuring kinase activity by quantifying the amount of ATP remaining in solution following a kinase reaction.
Kinase reactions were started by addition of 5 μl of ATP-mix containing in a final volume 10 μL 10 mM TRIS-HCl pH 7.5, 3 mM MgCl2, 50 mM NaCl, 0.05% CHAPS, 1 mM DTT and 1 μM ATP, and occurred at room temperature.
The PI3Kα construct is a fusion of p85α iSH2 domain and the respective p110 isoform. The p85α fragment and p110 isoform gene were generated by PCR from first strand cDNA generated by RT-PCR from commercial RNA from placenta, testis and brain as described below.
The p85 fragment was derived from plasmid p1661-2 digested with Nhe/Spe. The p110α fragment derived from its clone was verified by sequencing and used in LR410 as a SpeI/HindIII fragment. For the generation of the baculovirus expression vector LR410 the gateway LR reaction to transfer the insert into the Gateway adapted pBlueBac4.5 (Invitrogen) vector was used. The cloning vector pBlueBac4.5 (Invitrogen) was digested with Nhe/HindIII. […] The two reverse primers overlap and incorporate a 12×Gly linker and the N-terminal sequence of the p110α gene to the SpeI site. The PCR fragment was cloned into pCR2.1 TOPO (Invitrogen). Of the resulting clones, p1661-2 was determined to be correct by sequencing. This plasmid was digested with Nhe and SpeI and the resulting fragment was gel-isolated and purified for sub-cloning.
PI3Kα was purified in two chromatographic steps: immobilized metal affinity chromatography (IMAC) on a Ni sepharose resin (GE Healthcare) and gel filtration utilizing a Superdex 200 26/60 column (GE Healthcare). All buffers were chilled to 4° C. and lysis was performed chilled on ice. Column fractionation was performed at room temperature.

[1] = test system: constitutively active mTOR; test: Test 3: TSC Assay (high content imaging of phospho-S6 (240/244) in TSC1−/− MEFs); type: cell-based; settings: Mus musculus, pS6 240/244 staining, 2 hrs compound treatment
Procedure: This assay generates IC50 values for compounds that inhibit mTOR.
Quantification of pS6 Staining Using High-Content Imaging and Analysis
Day 0: Cell plating. Subconfluent TSC1−/− MEFs are harvested by trypsinization, resuspended in growth medium, and counted. […] The plates are briefly spun down and placed at 37° C. and 5% CO2. • 2. Day 1: Cell plates are washed into a PBS starve solution (contains glucose, sodium bicarbonate, HEPES and phenol red) using a 384-well plate washer. The wash protocol aspirates the volume down to 30 μL/well before dispensing 60 μL/well of the PBS starve solution. Aspiration and dispensing steps are repeated 8 times and a final volume of 30 μL/well is left. The cell plates are placed at 37° C. and 5% CO2 for 2 hrs. • Compound treatment. Compound dose responses are prepared in DMSO. The dose responses are then diluted 1:50 in medium. 10 ul of the diluted compound is added to 30 ul of cells, yielding a final 1:200 dilution of the original compound and final of 0.5% DMSO. Compound-treatments are performed in triplicates. The plates are placed at 37° C. and 5% CO2 for 2 hrs. Cells are then fixed by adding 10 μL/well 5× concentrated Mirsky's fixative. […] The cell plates are briefly spun down and incubated for 1 h at room temperature. Cells are then washed using a 384-well plate washer using a protocol which aspirates the volume down to 30 μL/well before dispensing 60 μL/well 1×TBS. Aspiration and dispensing steps are repeated 8 times and then an additional aspiration step leaves a final volume of 10 μL/well. Block buffer (1×TBS+0.1% Triton X-100+0.1% BSA) is then added at 25 μL/well and the plates are incubated at room temperature for 30 min. The cell plates are then aspirated down to 10 μL/well. […] Plates are incubated overnight at 4° C. • 3. […] The bottom of the plate is cleaned with 70% ethanol and then imaged using the InCell 1000 automated epifluorescence microscope. […] Cy5 images are acquired using an excitation of 620 nm (Chroma 620—60× filter), an emission of 700 nm (Chroma HQ700—75M filter) and an exposure time of 200 ms. A double band pass mirror is used for all images. • 4. Image analysis: The InCell Analysis software is used to analyze the images using the Dual Object algorithm. […] The Cy5 fluorescence intensity inside the collar is measured (cell intensity) and results are reported on an “Average per cell” basis. • 5. IC50 calculation: IC50s are calculated by plotting the cell intensity values on the y-axis with dose response values on the x-axis. IC50 values represent compound potency against mTOR.

H4 mCherry-GFP-LC3 cells = test: Test 4: Autophagy Assay (mCherry-GFP-LC3 reporter, high-content imaging); type: cell-based; settings: Homo sapiens, 16-18 h
Excerpt: Autophagy is a catabolic pathway that degrades bulk cytosol in lysosomal compartments enabling amino acids and fatty acids to be recycled. […] To quantify autophagy induction by mTOR inhibitors, we use a mCherry-GFP-LC3 reporter which is amenable to retroviral delivery into mammalian cells, stable expression and analysis by fluorescence microscopy.
Described hereinafter is an imaging protocol and image recognition algorithm to visualize and measure changes in the autophagic pathway.
Quantification of Autophagy Using High-Content Imaging and Analysis
• 1. Day 0: Cell plating. Subconfluent H4 mCherry-GFP-LC3 cells are harvested by trypsinization, resuspended in growth medium, and counted (H4 cells: Human neuroglioma cell line (ATCC)). A cell suspension of 66′000 cells/mL is prepared and 30 μL are added into the wells of a 384-well plate using an electronic multichannel pipette. […] The cell plates are briefly spun down and placed at 37° C. and 5% CO2. • 2. Day 1: Compound treatment. Compound dose responses are prepared in DMSO. The dose responses are then diluted 1:50 in medium. 10 ul of the diluted compound is added to 30 ul of cells, yielding a final 1:200 dilution of the original compound and final of 0.5% DMSO. Compound-treatments are performed in triplicates. The 384-well plates are placed at 37° C. and 5% CO2. Compound treatment is performed for 16-18 h (see Note 1). • 3. Day 2: Cell fixation. Cells are fixed by adding 10 μL/well 5× concentrated Mirsky's fixative supplemented with 25 μg/mL Hoechst33342. […] The 384-well plate is briefly spun down and incubated for 1 h at room temperature. Cells are then washed using a 384-well plate washer using a protocol which aspirates the volume down to 10 μL/well before dispensing 100 μL/well 1×TBS. Aspiration and dispensing steps are repeated 4 times and a final volume of 100 μL/well is left. The plate is sealed using an adhesive PCR foil. • 4. Imaging. The bottom of the plate is cleaned with 70% ethanol and then imaged using the InCell 1000 automated epifluorescence microscope. 20× magnification is used and 4 different areas (fields) are imaged per well, this typically captures a total of around 400 cells per well. Hoechst33342 images are acquired using an excitation of 360 nm (D360—40× filter), an emission of 460 nm (HQ460—40M filter) and an exposure time of 150 ms. GFP images are acquired using an excitation of 475 nm (S47520× filter), an emission of 535 nm (HQ535—50M filter) and an exposure time of 1 s. mCherry images are acquired using an excitation of 535 nm (HQ535—50× filter), an emission of 620 nm (HQ620—60M filter) and an exposure time of 1 s. A quadruple band pass mirror is used for all images. • 5. Image analysis. The InCell Analysis software is used to analyze the images using the Multi Target Analysis algorithm. First, nuclei are detected in the Hoechst33342 image using top-hat segmentation and a minimal nuclear area of 50 μm^2. Cells are defined using a collar of 10 μm around the nuclei. Second, puncta (organelles) are identified in the mCherry image inside the cells using multi-top-hat segmentation. Third, the mask of the mCherry puncta is transferred onto the GFP image. Fourth, the GFP fluorescence intensity inside the mCherry puncta mask is measured (reference intensity). • 6. The ‘organelles’ parameter reflects mCherry-positive puncta of the mCherry-GFP-LC3 reporter and is used to calculate ‘LC3 puncta/cell’. For this purpose, the number of organelles is calculated per cell and averaged over all the cells in a given well (average per cell basis). mCherry-positive LC3 puncta numbers (y-axis) are plotted against the compound dose response values (x-axis) and EC50 values are calculated for each compound. EC50 values represent compound potency in terms of autophagy activation (e.g. increase in mCherry-positive LC3 puncta count). Notes • 1. Autophagy-modulation and redistribution of mCherry-GFP-LC3 can be already observed after a compound treatment time of 3-4 h. […]

FRAP1/mTOR = FRAP1/mTOR (Homo sapiens (Human), UniProt P42345); test: Test 2: mTOR Biochemical Assay (FRAP1/mTOR TR-FRET tracer assay); type: binding; settings: mTOR Kinase Tracer 314
FRAP1/mTOR, sequence (P42345 1360-2549): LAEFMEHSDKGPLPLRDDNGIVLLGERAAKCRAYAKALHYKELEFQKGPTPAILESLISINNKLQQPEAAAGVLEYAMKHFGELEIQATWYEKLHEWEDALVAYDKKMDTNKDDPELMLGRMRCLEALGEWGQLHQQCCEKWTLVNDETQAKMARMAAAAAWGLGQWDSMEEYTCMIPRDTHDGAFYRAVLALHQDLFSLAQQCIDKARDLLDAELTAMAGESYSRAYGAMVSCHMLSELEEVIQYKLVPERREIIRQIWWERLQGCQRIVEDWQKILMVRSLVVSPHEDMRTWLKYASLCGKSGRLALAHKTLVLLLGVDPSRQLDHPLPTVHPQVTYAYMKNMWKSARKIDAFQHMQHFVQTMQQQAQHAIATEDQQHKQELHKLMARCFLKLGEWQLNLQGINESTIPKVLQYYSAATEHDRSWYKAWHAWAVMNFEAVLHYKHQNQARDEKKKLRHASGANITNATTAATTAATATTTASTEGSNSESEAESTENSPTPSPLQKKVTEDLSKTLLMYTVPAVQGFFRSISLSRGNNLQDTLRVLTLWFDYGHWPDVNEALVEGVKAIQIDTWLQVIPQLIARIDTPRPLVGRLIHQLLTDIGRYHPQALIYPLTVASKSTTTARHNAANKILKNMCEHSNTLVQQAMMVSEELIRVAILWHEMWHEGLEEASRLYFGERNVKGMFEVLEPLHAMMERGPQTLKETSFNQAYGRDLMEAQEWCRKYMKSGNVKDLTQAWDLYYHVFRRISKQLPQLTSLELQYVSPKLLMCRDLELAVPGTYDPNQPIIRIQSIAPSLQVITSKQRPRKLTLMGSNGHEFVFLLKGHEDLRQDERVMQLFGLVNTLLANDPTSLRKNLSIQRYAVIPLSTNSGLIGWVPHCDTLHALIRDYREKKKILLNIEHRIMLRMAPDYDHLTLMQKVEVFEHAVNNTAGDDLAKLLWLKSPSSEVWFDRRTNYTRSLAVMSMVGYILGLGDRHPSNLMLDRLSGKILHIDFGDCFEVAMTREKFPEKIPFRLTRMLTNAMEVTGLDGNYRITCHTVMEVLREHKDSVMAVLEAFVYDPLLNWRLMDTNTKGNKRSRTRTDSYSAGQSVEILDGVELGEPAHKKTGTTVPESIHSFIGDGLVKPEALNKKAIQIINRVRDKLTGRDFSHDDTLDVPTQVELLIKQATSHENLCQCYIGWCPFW
Procedure: IC50s for mTOR interacting compounds were assessed using the FRAP1/mTOR TR-FRET tracer assay (Invitrogen by Life Technologies). […] Compounds were serially diluted in DMSO (12-point, 4× dilution factor) and 1 μL of diluted compound was then added to each well and mixed by pipetting using a Biomek FX (Beckman Coulter).

[2] = Table 1, mCherry-positive LC3 puncta/cell
[3] = Table 4 (unit inferred), mCherry-positive LC3 puncta/cell

PI3Kα, sequence (P42336 other isoform, or with tags, fused parts or gaps): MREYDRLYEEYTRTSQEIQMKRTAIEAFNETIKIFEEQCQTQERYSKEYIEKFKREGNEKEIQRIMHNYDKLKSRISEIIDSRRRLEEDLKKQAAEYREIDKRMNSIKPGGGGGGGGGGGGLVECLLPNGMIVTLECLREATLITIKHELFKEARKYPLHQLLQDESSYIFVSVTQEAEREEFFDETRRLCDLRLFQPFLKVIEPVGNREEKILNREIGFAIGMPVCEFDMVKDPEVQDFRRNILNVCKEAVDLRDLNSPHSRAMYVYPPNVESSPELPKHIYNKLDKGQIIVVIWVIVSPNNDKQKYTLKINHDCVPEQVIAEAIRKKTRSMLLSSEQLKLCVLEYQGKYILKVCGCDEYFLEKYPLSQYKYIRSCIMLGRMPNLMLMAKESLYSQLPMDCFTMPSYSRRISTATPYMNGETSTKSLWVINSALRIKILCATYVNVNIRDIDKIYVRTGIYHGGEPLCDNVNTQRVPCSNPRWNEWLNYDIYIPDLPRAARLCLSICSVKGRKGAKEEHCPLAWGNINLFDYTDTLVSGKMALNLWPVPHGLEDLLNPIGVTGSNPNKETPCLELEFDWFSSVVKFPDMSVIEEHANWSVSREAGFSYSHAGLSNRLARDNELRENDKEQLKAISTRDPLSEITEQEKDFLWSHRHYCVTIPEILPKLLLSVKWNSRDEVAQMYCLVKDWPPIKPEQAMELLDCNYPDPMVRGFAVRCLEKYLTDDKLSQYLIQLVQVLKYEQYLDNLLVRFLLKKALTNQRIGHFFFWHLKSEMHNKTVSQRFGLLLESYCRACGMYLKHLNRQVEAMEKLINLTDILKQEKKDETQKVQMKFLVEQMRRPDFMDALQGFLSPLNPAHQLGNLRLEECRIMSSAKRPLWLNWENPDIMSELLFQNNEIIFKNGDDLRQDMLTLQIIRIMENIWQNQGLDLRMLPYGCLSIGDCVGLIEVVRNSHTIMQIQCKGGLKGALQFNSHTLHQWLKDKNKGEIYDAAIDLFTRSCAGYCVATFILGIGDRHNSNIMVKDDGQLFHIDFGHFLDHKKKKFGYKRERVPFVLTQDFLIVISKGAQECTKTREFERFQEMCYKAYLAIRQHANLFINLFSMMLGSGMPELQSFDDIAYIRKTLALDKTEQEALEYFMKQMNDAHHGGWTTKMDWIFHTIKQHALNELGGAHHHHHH

SMILES: C[C@H]1COCCN1c1nc(N2CCOCC2)nc2[nH]c(-c3cc(CO)ccc3Cl)nc12 [Example 10, {4-Chloro-3-[6-((S)-3-methyl-morpholin-4-yl)-2-morpholin-4-yl-9H-purin-8-yl]-phenyl}-methanol]
- IC50 (PI3Kα): 720 nM
- IC50 [1]: 5720 nM
- EC50 (H4 mCherry-GFP-LC3 cells; [2]): > 10000 nM
- IC50 (FRAP1/mTOR): 1840 nM

SMILES: C[C@H]1COCCN1c1nc(N2CCC(F)(F)CC2)nc2[nH]c(-c3cccc4[nH]ccc34)nc12 [Example 5, 2-(4,4-Difluoro-piperidin-1-yl)-8-(1H-indol-4-yl)-6-((S)-3-methyl-morpholin-4-yl)-9H-purine]
- IC50 (PI3Kα): > 9100 nM
- IC50 [1]: 551 nM
- EC50 (H4 mCherry-GFP-LC3 cells; [2]): 2590 nM
- IC50 (FRAP1/mTOR): 150 nM

SMILES: C[C@@H]1COCCN1c1nc(N2CCOC[C@@H]2C)nc2[nH]c(-c3ccc4cc[nH]c4c3)nc12 [Example 44, 8-(1H-Indol-6-yl)-2-((S)-3-methyl-morpholin-4-yl)-6-((R)-3-methyl-morpholin-4-yl)-9H-purine]
- IC50 (PI3Kα): 5950 nM
- IC50 [1]: 388 nM
- EC50 (H4 mCherry-GFP-LC3 cells; [3]): 395 nM
- IC50 (FRAP1/mTOR): 140 nM

SMILES: NCc1cccc(-c2nc3c(N4CCOCC4)nc(N4CCOCC4)nc3[nH]2)c1 [Example 11, 3-(2,6-Di-morpholin-4-yl-9H-purin-8-yl)-benzylamine]
- IC50 (PI3Kα): 8140 nM
- IC50 [1]: 6020 nM
- EC50 (H4 mCherry-GFP-LC3 cells; [2]): > 2000 nM
- IC50 (FRAP1/mTOR): 2420 nM

SMILES: C[C@@H]1COCCN1c1nc(N2CC3CCC(C2)O3)nc2[nH]c(-c3cccc4[nH]ccc34)nc12 [Example 46, 8-(1H-Indol-4-yl)-6-((R)-3-methyl-morpholin-4-yl)-2-(8-oxa-3-aza-bicyclo[3.2.1]oct-3-yl)-9H-purine]
- IC50 (PI3Kα): 580 nM
- IC50 [1]: 100 nM
- EC50 (H4 mCherry-GFP-LC3 cells; [3]): 171 nM
- IC50 (FRAP1/mTOR): 30 nM

SMILES: C[C@@H]1COCCN1c1nc(N2CCOC[C@@H]2C)nc2[nH]c(-c3cccc4c3CCN4)nc12 [Example 41, 8-(2,3-Dihydro-1H-indol-4-yl)-2-((S)-3-methyl-morpholin-4-yl)-6-((R)-3-methyl-morpholin-4-yl)-9H-purine]
- IC50 (PI3Kα): 3350 nM
- IC50 [1]: 457 nM
- EC50 (H4 mCherry-GFP-LC3 cells; [3]): 2900 nM
- IC50 (FRAP1/mTOR): 30 nM

SMILES: C[C@H]1COCCN1c1nc(N2CCOCC2)nc2[nH]c(-c3ccc(F)c(CO)c3)nc12 [Example 4, {2-Fluoro-5-[6-((S)-3-methyl-morpholin-4-yl)-2-morpholin-4-yl-9H-purin-8-yl]-phenyl}-methanol]
- IC50 (PI3Kα): 1800 nM
- IC50 [1]: 1860 nM
- EC50 (H4 mCherry-GFP-LC3 cells; [2]): 1550 nM
- IC50 (FRAP1/mTOR): 1420 nM

SMILES: c1cc2ccc(-c3nc4c(N5C6CCC5COC6)nc(N5CCOCC5)nc4[nH]3)cc2[nH]1 [Example 53, 8-(1H-Indol-6-yl)-2-morpholin-4-yl-6-(3-oxa-8-aza-bicyclo[3.2.1]oct-8-yl)-9H-purine]
- IC50 (PI3Kα): > 9100 nM
- IC50 [1]: 528 nM
- EC50 (H4 mCherry-GFP-LC3 cells; [3]): 782 nM
- IC50 (FRAP1/mTOR): 190 nM

SMILES: C[C@H]1COCCN1c1nc(N2CCOCC2)c2nc(-c3ccc4cc[nH]c4c3)[nH]c2n1 [Example 49]
- IC50 (PI3Kα): 4430 nM
- IC50 [1]: 678 nM
- EC50 (H4 mCherry-GFP-LC3 cells; [3]): > 500 nM
- IC50 (FRAP1/mTOR): 370 nM
